The record followed here is patent publication EP4501339A1, “POSTBIOTIC COMPOSITION FOR SKIN DISORDERS AND COSMETIC USE” (Igen Biolab Group AG, priority 2023, dated 2025).

The structures appear in SMILES notation. In brackets after ≈: the same amount, converted by molar mass.

For one data set, the system named is BALB/c 3T3 cells. The data set can be described thus: In vitro 3T3 NRU phototoxicity assay OECD 432. It counts as cell-based, mouse. To be noted: for IC50: Mus musculus, BALB/c3T3, light or radiation study. As for the experimental part:
(§1) The phototoxicity assay used 3T3 cells as test system. The aim of this study was to obtain the Photo-Irritation Factor (PIF) for the postbiotic composition of the invention. 3T3 cells were treated with the postbiotic composition of the invention at eight different concentrations for 1 hour. Thereafter, half of the samples were exposed to simulated solar irradiation, whereas the other half was kept in the dark. Cell viability was calculated after 24 hours of incubation by means of the neutral red assay. The following reagents were used for these assays. Table 3 Table 3 Reagents used in this example
(§2) Balb/c 3T3 cells were used as a test system. Once thawed, cells were grown as a monolayer in DMEM culture medium supplemented with 10% Newborn Calf Serum (NCBS) and antibiotics (100 U/mL penicillin and 100 µg/mL streptomycin). The cells were incubated under standard culture conditions (37°C ± 2°C and 5% CO2/air), changing the medium every 2-3 days and sub-cultivating before reaching 80% confluency. According to the guideline, the 3T3 cells used in this study were tested for mycoplasma and only mycoplasma-free cells were used throughout the study.
(§3) To prepare the system, after thawing, cells were propagated from stock cultures and grown in culture medium for two weeks. For each assay, when cell density reached 80% confluence, they were trypsinized and counted using trypan blue strain. The day before the exposition to the postbiotic composition of the invention, the cells were tripsinized and counted. A suspension of 100,000 cells/mL was prepared and 200 µL of the suspension were added to each well in 96-well plates (20,000 cells/well), except in the peripheral wells.
(§4) According to the OECD Guideline for testing of chemicals: In Vitro 3T3 NRU phototoxicity test, protocol No 432 (2019), the maximum concentration to be analyzed is 1 mg/mL. As the cytotoxicity assay exposed the cells to the composition for 24 hours, and the phototoxicity assay includes an exposition of 1 hour, it was decided to perform the phototoxicity test starting from 1 mg/mL. From this concentration, eight concentrations were prepared in 1/3 dilutions. This solution was prepared in Hank's with Ca2+ and Mg2+ and HEPES. (C1) 1 mg/mL; (C2) 0.33 mg/mL; (C3) 0.11 mg/mL; (C4) 0.037 mg/mL; (C5) 0.0123 mg/mL; (C6) 0.0041 mg/mL; (C7) 0.00137 mg/mL; and (C8) 0.000457 mg/mL SDS was used as a positive control, 8 concentrations were prepared 400 µg/mL; 200 µg/mL; 100 µg/mL; 50 µg/mL; 25 µg/mL; 12.5 µg/mL; 6.25 µg/mL; and 3.125 µg/mL
(§5) As the exposition time involved in the phototoxicity test was shorter, it was decided to start this assay from highest concentration allowed: 1 mg/mL. Seven more concentrations were prepared in 1/3 dilutions. 3T3 cells were seeded at 20,000 cells/well in 96-well plates. Cells were exposed to the eight concentrations of the postbiotic composition of the invention defined above for 1 hour at 37°C and 5% CO2. Two 96-well plates were prepared for the postbiotic composition of the invention, the postbiotic composition and reference control (CPZ). One plate of each condition (+IRR) was irradiated for 52 minutes at 5 J/cm^2 while the other plates (- IRR) were kept in the dark for the same amount of time. Then, culture media was removed, cells were washed with Hank's without phenol red and 100 µL of neutral red were added to each well. Cells were incubated for 3 hours at 37°C and 5% CO2 and then were washed again. Finally, the neutral red was solubilized by adding 100 µL to each well of a solution of Acetic acid/Ethanol. Plates were incubated 10 minutes at room temperature and absorbance at 540 nm was measured.
(§6) Once obtained the cytotoxic results, the phototoxicity assay for the postbiotic composition of the invention was performed using 1 mg/mL as the highest dose. […] Therefore, it was decided to use the highest concentration allowed according to OECD 432 guideline. In total, 8 concentrations were prepared as disclosed in the material and methods section above. […]

Data set [1] is described as follows: In vitro 3T3 NRU phototoxicity assay OECD 432. It counts as cell-based, mouse. To be noted: mouse, reference item; for viability at 1 h, 200 µg/mL: C1 = 200 µg/mL; for viability at 1 h, 66.67 µg/mL: C2 = 66.67 µg/mL; for viability at 1 h, 22.22 µg/mL: C3 = 22.22 µg/mL; for viability at 1 h, 7.407 µg/mL: C4 = 7.407 µg/mL; for viability at 1 h, 2.47 µg/mL: C5 = 2.47 µg/mL; for viability at 1 h, 0.823 µg/mL: C6 = 0.823 µg/mL; for viability at 1 h, 0.274 µg/mL: C7 = 0.274 µg/mL; for viability at 1 h, 0.091 µg/mL: C8 = 0.091 µg/mL. How it is done: as §1, §2, §3, §4, §5, §6

The next data set can be described thus: in vitro. The settings on record: human.
The test system of the next data set is 3T3 cells. Put plainly: Dose range finding (cytotoxicity assay, MTT). The data set is classed as cell-based, mouse. To be noted: 3T3, 24h. How it is done:
- Prior to the phototoxicity assay, solubility of the composition was determined, it was decided to start from 20 mg/mL in culture media. Starting from this concentration, a dose range finding experiment (cytotoxicity assay) was performed. Starting from 20 mg/mL in culture media, eight concentrations were prepared in 1/10 dilutions: 20 mg/mL; 2 mg/mL; 0.2 mg/mL; 0.02 mg/mL; 0.002 mg/mL; 0.0002 mg/mL; 0.00002 mg/mL; and 0.000002 mg/mL
Starting from the limit of solubility obtained (20 mg/mL) a dose range finding experiment was set up in order to determine the IC50 value (if obtained). 3T3 cells were seeded at 10,000 cells/well in 96-well plates. Seven more concentrations were prepared following a 1/10 dilution factor. Cells were exposed to the postbiotic composition of the invention for 24h. SDS was used as positive control and viability was determined by means of MTT method.
To establish the concentrations to be tested in the phototoxicity assay, it was decided to check the postbiotic composition of the invention in a dose range finding assay using SDS as a positive control. Starting from 20 mg/mL dissolved in culture media it was decided to prepare the concentrations disclosed above in the materials and methods section. Using the Graphpad Prism 8 statistical software, we calculated the IC50 values by means of a 4-parameter logistic curve (4PL). This equation uses log(dose) values.

As to `CN(C)CCCN1c2ccccc2Sc2ccc(Cl)cc21` [CPZ, Chlorpromazine], the midpoint of inhibition in the data set on BALB/c 3T3 cells (irradiated plates), the IC50, lay at 0.974 µg/mL (≈ 3.05 µM). This compound had an IC50 with BALB/c 3T3 cells (non-irradiated plates) of 31.4 µg/mL (≈ 98.5 µM). Further, in the data set with BALB/c 3T3 cells (mouse, 1 h), the “MPE (∑i = 1^n wi PEci)/(∑i = 1^n wi)” value was determined as 0.401 and the “PIF (IC50(−Irr))/(IC50(+Irr))” value stood at 32.303. Further, in data set [1] (+IRR (5 J/cm^2)), the viability at 1 h, 200 µg/mL was determined as 2.57%; the viability at 1 h, 66.67 µg/mL is 0.32%; the viability at 1 h, 22.22 µg/mL came out at 1.62%; the viability at 1 h, 7.407 µg/mL came out at 1.75%. In data set [1] (+IRR (5 J/cm^2)), the viability at 1 h, 2.47 µg/mL worked out at 1.31%; the viability at 1 h, 0.823 µg/mL was 83.4%; the viability at 1 h, 0.274 µg/mL stood at 104%; the viability at 1 h, 0.091 µg/mL turned out to be 103%. Besides, in data set [1] (-IRR), the viability at 1 h, 200 µg/mL worked out at 0.41%; the viability at 1 h, 66.67 µg/mL was determined as 0.01%; the viability at 1 h, 22.22 µg/mL was found to be 97.8%; the viability at 1 h, 7.407 µg/mL is 104%. Further, in data set [1] (-IRR), the viability at 1 h, 2.47 µg/mL came out at 105%; the viability at 1 h, 0.823 µg/mL was 105%; the viability at 1 h, 0.274 µg/mL was 104%; the viability at 1 h, 0.091 µg/mL was 102%.

`CCCCCCCCCCCCOS(=O)(=O)[O-].[Na+]` [SDS, Sodium dodecyl sulphate]: the viability in the data set “in vitro” was 2%. Further, in the data set on 3T3 cells, the “positive control result in dose range finding” value is recorded as “within the known range”.
